Reference: patent publication US20250205162A1, “SYSTEMS AND METHODS FOR SMALL MOLECULE ENCAPSULATION” (Tecton Group, LLC, priority 2022, published 2025)

How the values were obtained:
pH in water = format: physicochemical; conditions: aqueous solution
[1] = humans; cited from earlier work

Row | pH in water (pH in water) | Compound | safe daily use [1]
1 | 4.5 | C[C@@H](O)CC(=O)OC(CO)CO [KM, 1,3 Dihydroxypropan-2-yl (R)-3-hydroxybutanoate] | 
2 |  | Cn1c(=O)c2c(n(C)c1=O)n(C)c(=O)n2C [TH, theacrine] | up to 300 mg/day
3 | 4.0 | nicotinamide riboside [NR] | 
